Data reported in ChEMBL document CHEMBL1139178, “Probing acid replacements of thiophene PTP1B inhibitors” (Bioorg Med Chem Lett, 2007).

target: T1, Tyrosine-protein phosphatase non-receptor type 1 (Homo sapiens, UniProt P18031); experiment: Inhibition of PTP1B assessed as pNPP hydrolysis; conditions: not given
T1 sequence (P18031 whole entry): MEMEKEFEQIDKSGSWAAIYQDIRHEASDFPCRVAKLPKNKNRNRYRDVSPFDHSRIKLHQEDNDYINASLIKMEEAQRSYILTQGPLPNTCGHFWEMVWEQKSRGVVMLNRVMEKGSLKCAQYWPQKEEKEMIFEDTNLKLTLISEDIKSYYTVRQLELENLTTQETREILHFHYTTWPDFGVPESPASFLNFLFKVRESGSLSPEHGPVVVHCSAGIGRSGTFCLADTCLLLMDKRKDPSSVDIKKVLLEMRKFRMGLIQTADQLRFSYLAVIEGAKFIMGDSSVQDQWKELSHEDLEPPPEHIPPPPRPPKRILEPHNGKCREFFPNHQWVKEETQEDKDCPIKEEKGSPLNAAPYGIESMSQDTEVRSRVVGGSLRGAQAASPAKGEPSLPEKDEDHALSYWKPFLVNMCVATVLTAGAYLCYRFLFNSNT

Structure (SMILES) | IC50 | Ki
O=C(O)COc1c(C(=O)CO)sc(Br)c1Br | 330 µM | 210 µM
O=C(O)COc1c(-c2nnn[nH]2)sc(-c2ccccc2)c1Br |  | 20 µM
N#Cc1sc(Br)c(Br)c1OCC(=O)O | > 2500 µM | 
O=C(O)c1sc(Br)c(Br)c1OCC(F)(F)F | > 2500 µM | 
C=CCOc1c(C(=O)O)sc(Br)c1Br | > 2500 µM | 
Cc1c(-c2ccccc2)sc(-c2nnn[nH]2)c1OCC(=O)O |  | 170 µM
O=C(COc1c(C(=O)O)sc(Br)c1Br)NO | > 2500 µM | 
Cc1nc(-c2sc(Br)c(Br)c2OCC(=O)O)no1 | > 2500 µM | 
O=C(O)c1sc(Br)c(Br)c1OCc1nn[nH]n1 | > 2500 µM | 
O=C(O)COc1c(C(=O)Nc2ccn[nH]2)sc(Br)c1Br | > 2500 µM | 
O=C(O)COc1c(-c2nnn[nH]2)sc(-c2cccc(NC3CCCCC3)c2)c1Br |  | 18 µM
O=C(O)c1sc(Br)c(Br)c1OCCO | > 2500 µM | 
O=C(O)COc1c(C(=O)Nc2nccs2)sc(Br)c1Br | > 2500 µM | 
O=C(O)c1sc(Br)c(Br)c1OCC(O)CO (stereo not drawn) | > 2500 µM | 
CC(C)c1nc(-c2sc(Br)c(Br)c2OCC(=O)O)no1 | > 2500 µM | 
CC(=O)N(c1cccc(-c2sc(-c3nn[nH]n3)c(OCC(=O)O)c2Br)c1)C1CC(C)(C)CC(C)(C)C1 |  | 4.6 µM
O=C(O)COc1c(-c2nnn[nH]2)sc(Br)c1Br | 430 µM | 270 µM

Structure (SMILES) | IC50 | Ki
NC(=O)c1sc(Br)c(Br)c1OCC(=O)O | > 2500 µM | 
NNC(=O)c1sc(Br)c(Br)c1OCC(=O)O | > 2500 µM | 
Cc1c(-c2cccc(OC3CCN(S(=O)(=O)Cc4ccccc4)CC3)c2)sc(-c2nn[nH]n2)c1OCC(=O)O |  | 1.3 µM
C=CCc1sc(Br)c(Br)c1OCC(=O)O | 165 µM | 
Cc1c(N2CC(=O)NS2(=O)=O)csc1-c1cccc(NC2CCCCC2)c1 |  | 12 µM
O=C(O)COc1c(C(=O)N2CCOCC2)sc(Br)c1Br | 210 µM | 
CC(=O)Nc1sc(Br)c(Br)c1OCC(=O)O | > 2500 µM | 
CC1(C)CC(Nc2cccc(-c3sc(-c4nn[nH]n4)c(OCC(=O)O)c3Br)c2)CC(C)(C)C1 |  | 1.6 µM
O=C(O)COc1c(CO)sc(Br)c1Br | > 2500 µM | 
O=C(O)COc1cc(-c2ccccc2)sc1-c1nn[nH]n1 |  | 120 µM
N#CCOc1c(C(=O)O)sc(Br)c1Br | > 2500 µM | 
O=C(O)COc1csc(Br)c1Br | > 2500 µM | 
O=C(O)COc1c(C(=O)O)sc(Br)c1Br | 29 µM | 
O=C1CN(c2csc(-c3ccccc3)c2Br)S(=O)(=O)N1 | 29 µM | 
CCc1nc(-c2sc(Br)c(Br)c2OCC(=O)O)no1 | > 2500 µM | 
Cc1c(N2CC(=O)NS2(=O)=O)csc1-c1cccc(NC2CCN(S(=O)(=O)Cc3ccccc3)CC2)c1 |  | 4.3 µM

system: not listed separately; experiment: Permeability of compound by PAMPA; format: ADME; conditions: read-out: permeability

Structure (SMILES) | Papp
O=C1CN(c2c(Cl)sc(-c3ccccc3)c2Cl)S(=O)(=O)N1 | 3.54 ×10⁻⁶ cm/s
Cc1c(-c2cccc(OC3CCN(S(=O)(=O)Cc4ccccc4)CC3)c2)sc(-c2nn[nH]n2)c1OCC(=O)O | 0.22 ×10⁻⁶ cm/s
Cc1c(N2CC(=O)NS2(=O)=O)csc1-c1cccc(NC2CCN(S(=O)(=O)Cc3ccccc3)CC2)c1 | 0.19 ×10⁻⁶ cm/s
